Values joined by “and” are separate entries in the source; they are usually repeats but may differ in a detail not shown here. Identical values can stand only once.
Assays:
SH-SY5Y cells [1] = test: ROS intracellular levels, carboxy-H2DCFDA; format: cell-based, human
Description: Next, the capacity of S. tubulifera metabolites to decrease ROS intracellular levels was evaluated (Figure 4). […] Regarding the oxidative stress model, H2O2 augmented the levels of oxidant molecules up to 125.1 ± 2.4% (p < 0.01) and the known antioxidant Vit E, used as a positive control, induced a reduction in ROS release of 24% with respect to cells treated only with H2O2 (p < 0.05).
Figure 4 ROS intracellular levels after treatment with compounds. Furanoditerpenes were added for 6 h in the absence and presence of 150 μM H2O2. Then, the ROS content was measured with the fluorescent dye 5-(and-6)-carboxy-2′,7′-dichlorodihydrofluorescein diacetate (carboxy-H2DCFDA). Results from (a) 1, (b) 2, (c) 3, (d) 4, and (e) 5. Vitamin E (Vit E) at 25 μM was used as a positive control. Data expressed as the percentage of untreated control cells. Mean ± SEM of three experiments performed in triplicate. Statistical differences determined by one-way ANOVA test followed by Dunnett’s post hoc test. ^##p < 0.01 compared to control cells. *p < 0.05, **p < 0.01, and ***p < 0.01 compared to H2O2 control.
(§1) For these experiments, cells were seeded in 384-well plates and treated as described above. All of the assays were carried out as previously described.[15]
The fluorescent dye 5-(and-6)-carboxy-2′,7′-dichlorodihydrofluorescein diacetate (carboxy-H2DCFDA) was used to evaluate ROS levels. After treatment with compounds and H2O2, cells were washed twice with serum-free medium. Next, cells were loaded with 20 μM carboxy-H2DCFDA dissolved in serum-free medium, and the plate was incubated for 1 h at 37 °C and 300 rpm. Then, 100 μL of PBS were added to each well for 30 min at 37 °C and 300 rpm. After this incubation, the fluorescence was read at […].

CypD = CypD expression by Western blot
Source text: (b) CypD expression after treatment with S. tubulifera metabolites. (c) Effect of compounds on the CypD expression under oxidative stress conditions. […] Protein band expression was normalized by actin levels. Results are mean ± SEM of three replicates carried out in duplicate. Data expressed as the percentage of untreated control cells and H2O2 control. Values compared by one-way ANOVA and Dunnett’s tests. ^#p < 0.05 and ^##p < 0.01 compared to control cells. *p < 0.05 and **p < 0.01 compared to cells treated with H2O2 alone.
In this context, the expression of this protein was analyzed after treatment with compounds. CypD cytosolic levels were evaluated after treatment with 1–5 alone for 6 h and after the coaddition of diterpenes and H2O2 to get a complete insight into diterpene mitochondria-related effects.
SH-SY5Y cells were cultured in 12-well plates at 1 × 10^6 cells per well and allowed to settle down for 24 h.
Cells were washed twice with ice-cold PBS, and a hypotonic solution was added (20 mM tris–HCl pH 7.4, 10 mM NaCl, and 3 mM MgCl2, containing phosphatase and protease inhibitor cocktail). Cells were incubated for 15 min on ice and centrifuged at 3000 rpm and 4 °C for 15 min. The supernatant was collected as the cytosolic fraction, and protein concentration was quantified with the Direct Detect instrument (Merck Millipore, Darmstadt, Germany).[15]
Electrophoresis was resolved in 4–20% sodium dodecyl sulfate polyacrylamide gels (Biorad, Hercules, CA), containing 15 μg of cytosolic protein from each sample. The Trans-Blot semidry transfer cell (Biorad) was used to transfer proteins to poly(vinylidene difluoride) (PVDF) membranes (Merck Millipore). Snap i.d. system (Merck Millipore) was used for membrane blocking and antibody incubation. […] Immunoreactive bands were detected with Supersignal West Pico Luminiscent Substrate and Supersignal West Femto Maximum Sensitivity Substrate. Diversity GeneSnap system and software (Syngene, Cambridge, U.K.) were used for protein band detection. Experiments were performed three independent times in duplicate.

[2] = test system: mitochondrial permeability transition pore (mPTP); details: 0.25 h, 0.001 µM
Description: (§2) SH-SY5Y cells were treated for 15 min with 1–5, and 1 mM tert-butyl hydroperoxide (TBHP) was used to open the pore. Cells were loaded with calcein-AM, which accumulates in cytosol and cell compartments and with CoCl2 that quenches cytosolic fluorescence but not the mitochondrial signal.[17] Then, fluorescence was analyzed by flow cytometry (Figure 6a). […] (a) Analysis of mPTP opening. Cells were treated with compounds at 0.001 μM for 15 min, and pore opening was induced with 1 mM TBHP. Calcein-AM and CoCl2 were used to measure mPTP aperture by flow cytometry. […] Values are presented as the percentage of control cells. Data are mean ± SEM of three independent experiments. Statistical differences determined by one-way ANOVA and Dunnett’s tests. ^###p < 0.001 compared to control cells. *p < 0.05 and **p < 0.01 compared to cells treated only with TBHP.
(§3) The inhibition of mPTP by compounds was determined with the MitoProbe Transition Pore Assay Kit, as previously described.[21] For this assay, cells were seeded in 12-well plates at 5 × 10^5 cells per well and allowed to grow for 24 h. Then, SH-SY5Y cells were detached with Detachin solution (Genlatis, San Diego), washed with PBS, and resuspended in PBS buffer with 0.6 mM CaCl2. Cells were loaded with 0.01 μM calcein-AM and incubated at 37 °C for 15 min. Then, 0.4 mM CoCl2 and compounds at 0.001 μM were added and cells were incubated for 15 min at 37 °C. After this incubation, cells were centrifuged, resuspended in 100 μL of calcium-free PBS, and kept on ice. Finally, TBHP at 1 mM was added for 3 min to the cells to induce the pore opening. […] The fluorescence of 10 000 events was analyzed with IDEAS Application vs 6.0 (Amnis Corporation, Luminex Corp).

human CypD = human CypD (Homo sapiens, UniProt P30405); test: Surface plasmon resonance binding to immobilized CypD; details: for kon: read-out: ka, CypD
Description: With this objective, surface plasmon resonance (SPR) experiments were performed. CypD was immobilized in the sensor surface as a ligand, and 1–5 were injected as analytes. […] For immobilization, amine groups were activated with 1-ethyl-3-(3-dimethylaminopropyl)carbodiimide hydrochloride (EDC) and N-hydroxysuccinimide (NHS) and 50 μg/mL of human CypD dissolved in 5 mM sodium acetate (pH 4.5) was added. […] All of the assays were carried out with phosphate-buffered saline (PBS)—0.05% Tween (pH 7.2) as the running buffer, with a flow rate of 20 μL/min at 24 °C.
The left panels present association curves obtained by the addition of compounds over immobilized CypD and subtraction of their respective solvent control. The right panels show fitting curves for equilibrium binding. Representative graphs of one independent replicate. […] All injections were performed using PBS, 0.05% Tween (pH 7.2) as the running buffer. Kinetic equilibrium dissociation constants (KD) and fitting curves were obtained with TraceDrawer software.
(§4) SPR measurements were performed using the MP-SPR Navi 210A VASA instrument with SPR Navi Control software (BioNavis, Tampere, Finland). All of the analyses were carried out in three-dimensional (3D) carboxymethyl dextran hydrogel-coated (CMD-3DM) sensors (BioNavis). PBS, 0.05% Tween (pH 7.2) was used as the running buffer for sensor activation, protein immobilization, and analyte injection. All buffers were degassed and filtered by 0.22 μm before use. The flow rate and temperature were set at 20 μL/min and 24 °C, respectively. A commercial Amine Coupling Kit (Xantec bioanalytics GmbH, Düsseldorf, Germany) was used for sensor activation and Cyps immobilization. The chip surface was preconditioned with 2 M NaCl and 0.01 M NaOH. Then, the surface was activated by the addition of 0.2 M 1-ethyl-3-(3-dimethylaminopropyl)carbodiimide hydrochloride (EDC) and 0.05 M N-hydroxysuccinimide (NHS). After activation, 50 μg/mL of CypA or CypD dissolved in 5 mM sodium acetate buffer (pH 4.5) were injected for immobilization on the sensor surface. […] Compound injections were performed in serial mode, and the reference channel signal was subtracted from the analyte sensorgram. Data were processed with MP-SPR Navi Data Viewer (BioNavis), and KD values were obtained using the 1:1 Langmuir model with mass transport considerations of TraceDrawer software (RidgeView Instruments Ab, Uppsala, Sweden). All of the experiments were performed three independent times.

[3] = test system: mitochondrial permeability transition pore (mPTP); test: mPTP opening, calcein-AM/CoCl2 flow cytometry; details: 0.001 μM, 15 min pretreatment, TBHP 3 min
Description: as §2, §3

SH-SY5Y cells [4] = test: GSH content, Thiol Tracker Violet; format: cell-based, human; details: for GSH content: 150 μM H2O2, 6 h, % of untreated control cells
Description: To confirm the antioxidant properties of S. tubulifera compounds, the levels of the most important nonenzymatic antioxidant of cells, glutathione (GSH), were assessed. […] Regarding diterpene 2, an increase in the nonenzymatic antioxidant was observed when cells were cotreated with H2O2 and this compound at 0.001 and 1 μM (p < 0.05) (Figure 5b). No effects were found after the addition of 3 (Figure 5c), but 4 and 5 presented interesting results (Figure 5d,e).
Figure 5 Effect of S. tubulifera metabolites in the GSH content of human neuroblastoma cells. SH-SY5Y cells were treated with compounds for 6 h with and without 150 μM H2O2. GSH levels were monitored with Thiol Tracker Violet dye. (a) Compound 1, (b) compound 2, (c) compound 3, (d) compound 4, and (e) compound 5 results. Vitamin E (Vit E) at 25 μM was used as a positive control. Mean ± SEM of three experiments performed in triplicate. Data presented as the percentage of untreated control cells and compared by one-way ANOVA and Dunnett’s tests. ^##p < 0.01 compared to control cells. *p < 0.05 compared to cells treated with H2O2 alone.
as §1
Thiol Tracker Violet was used to measure intracellular GSH levels, following the manufacturer’s instructions. Briefly, human neuroblastoma cells were rinsed twice with PBS and the fluorescence dye at 10 μM was added. The plate was incubated for 30 min at 37 °C and 300 rpm, and the fluorescence was measured at 404 nm excitation and 526 nm emission in a plate reader. All experiments were performed three independent times in triplicate.

Human CypA = Human CypA (Homo sapiens, UniProt P62937); test: Surface plasmon resonance binding to immobilized CypA; details: for Kd: CypA, SPR, 1:1 Langmuir model, PBS-T pH 7.2, 24 °C; for kon: read-out: ka, CypA
Description: The protein was immobilized on the sensor surface by amino coupling, as described above (Figure S7), and compounds at several concentrations were added. The same conditions set for CypD were used for CypA experiments, with a flow rate of 20 μL/min and PBS-T (pH 7.2) as the running buffer.
Figure 9 Binding of compounds to CypA measured by surface plasmon resonance. The left panels present association curves obtained by the addition of compounds over immobilized CypA and subtraction of their respective vehicle signal. The right panels show fitting curves for equilibrium binding. Representative graphs of one independent replicate. […] Kinetic equilibrium dissociation constants (KD) and fitting curves were obtained with TraceDrawer software.
as §4

ERK = ERK activation (phosphorylated/total) by Western blot; format: cell-based, human
Source text: Considering that CypD has several upstream regulators, which are also considered mPTP modulators,[10] the study was continued by evaluating if S. tubulifera metabolites were affecting the activation of two kinases involved in the control of mPTP by CypD, ERK, and GSK3β (Figure 7). Regarding ERK, its activation has been related to the inhibition of CypD-mediated mPTP opening. Therefore, the phosphorylated state of residues implicated in ERK activation (Thr202, Tyr204, Thr185, and Tyr187) was determined, as well as its total levels. Any of the compounds were able to activate ERK under neither physiological nor oxidative conditions (Figure 7a,b). However, 3 inhibited the kinase in both situations, with levels of 78.6 ± 4.8% (p < 0.05) and 67.3 ± 9.4% (p < 0.01), respectively. […] On the other hand, GSK3β inhibition results in a reduction in mPTP opening since the kinase binds to CypD, decreasing its interaction with mPTP components.[10] In the case of GSK3β, Ser9 phosphorylation was determined, a residue implicated in kinase inhibition (Figure 7c,d).
Figure 7 Analysis of compound effects on CypD upstream regulators. SH-SY5Y cells were treated with 1–5 at 0.001 μM for 6 h, and their effects on kinase activation were evaluated. […] Kinase expression was calculated as the ratio between phosphorylated and total levels. […] Data expressed as the percentage of untreated control cells and H2O2 control. […]

Chain of Human CypA (P62937 whole entry): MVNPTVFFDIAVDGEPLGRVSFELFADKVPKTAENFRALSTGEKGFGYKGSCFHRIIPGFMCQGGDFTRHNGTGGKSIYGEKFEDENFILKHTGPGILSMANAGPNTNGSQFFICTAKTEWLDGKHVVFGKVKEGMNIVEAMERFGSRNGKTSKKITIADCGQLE
Chain of human CypD (P30405 30-207): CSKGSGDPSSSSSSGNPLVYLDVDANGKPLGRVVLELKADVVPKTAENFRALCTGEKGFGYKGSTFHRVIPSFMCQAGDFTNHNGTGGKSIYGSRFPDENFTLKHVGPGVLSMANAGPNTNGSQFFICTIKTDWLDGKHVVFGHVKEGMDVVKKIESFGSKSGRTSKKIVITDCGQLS

Row | Compound | reduction in ROS release with respect to cells treated only with H2O2 (SH-SY5Y cells [1]; Vit E 25 μM, 150 μM H2O2, 6 h) | CypD expression under oxidative damage (CypD; compound 0.001 μM + 150 μM H2O2, 6 h, % of H2O2 control cells) | calcein fluorescence (mPTP opening) [2] | Kd (human CypD) | selectivity between CypD and CypA (KD values) (human CypD; SPR, CypD versus CypA) | kon (human CypD) | inhibition of mPTP opening after oxidative injury [3] | GSH content (SH-SY5Y cells [4]; compound 0.001 μM) | GSH content (SH-SY5Y cells [4]; compound 0.1 μM) | maximum SPR signal, CypA (Human CypA) | Kd (Human CypA) | kon (Human CypA) | effect on CypD expression (CypD; 0.001 μM) | ERK activation (phosphorylated/total) (ERK; compound 0.001 μM + 150 μM H2O2, 6 h, % of H2O2 control) | ERK activation (phosphorylated/total) (ERK; compound alone 0.001 μM, 6 h, % of untreated control cells) | effect on ROS content (SH-SY5Y cells [1]; cotreatment with 150 μM H2O2, 6 h, all four concentrations 0.001-1 μM) | effect on GSH content (SH-SY5Y cells [4]; compound alone and with 150 μM H2O2, 6 h)
1 | Vitamin E [Vit E, reference compound] | 24% |  |  |  |  |  |  |  |  |  |  |  |  |  |  |  | 
2 | C[C@]12C=C(O)C(=O)[C@](C)(CO)[C@@H]1CC[C@@]1(C)c3cocc3CC[C@H]21 [Compound 5, spongian diterpene 17] |  | about 54% | 90.3 ± 5.3% | 2.97 ± 0.01 µM | selectivity toward the mitochondrial isoform | 10000 M⁻¹ s⁻¹ | able to inhibit mPTP opening | 110.9 ± 10.0% | 118.9 ± 12.0% | 13.6 mdeg | 4.34 µM and 4.3 µM | 3590 M⁻¹ s⁻¹ |  |  |  |  | 
3 | CC1=C(O)C(=O)C[C@]2(C)[C@H]3CCc4cocc4[C@]3(C)CC[C@@H]12 [Compound 3] |  |  |  | 7 ± 0.04 µM |  | 3750 M⁻¹ s⁻¹ |  |  |  |  | 6.39 µM and 6.4 µM | 3190 M⁻¹ s⁻¹ | did not affect CypD expression | 67.3 ± 9.4% | 78.6 ± 4.8% | diminished ROS levels | No effects

Source: publication PMC9686139, “Furanoditerpenes from Spongia (Spongia) tubulifera Display Mitochondrial-Mediated Neuroprotective Effects by Targeting Cyclophilin D” (ACS Chemical Neuroscience, 2022)
